Experimental data as given in patent publication US8637525B2, “Compounds for the reduction of beta-amyloid production” (Bristol-Myers Squibb Company, priority 2009, dated 2014).

Tested on: Aβ1-42 production
Test: Cellular assay for inhibition of Aβ1-42 production (H4 APP751 SWE clone 8.20)
Type: cell-based
Conditions: 19 h, H4 APP751 SWE clone 8.20 cells, 19 h incubation; class symbols; read-out: Activity Rating (Aβ42 cellular IC50)
Procedure, shortened: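 Inhibition values are IC50s fitted to Viewlux counts after a 19 h compound exposure at 37 °C. Aβ42 was captured by the neoepitope-specific antibody 565 (0.8 ng/well) paired with N-terminal 26D6 (75 ng/well), incubated overnight at 4 °C in pH 7.4 Tris-HCl buffer containing 0.2% BSA.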

Row | IC50 | SMILES
1 | > 1000 nM | CNc1nc(Nc2ccccc2C#N)nc2c1CCC2c1ccccc1 (stereo not shown) [Example 228, 2-(4-(methylamino)-7-phenyl-6,7-dihydro-5H-cyclopenta[d]pyrimidin-2-ylamino)benzonitrile]
2 | 100 to 1000 nM | CNc1nc(Nc2ccc(CC#N)cc2)nc2c1CCC2c1ccccc1 (stereo not shown) [Example 231, 2-(4-(4-(methylamino)-7-phenyl-6,7-dihydro-5H-cyclopenta[d]pyrimidin-2-ylamino)phenyl)acetonitrile]
3 | > 1000 nM | CNc1nc(Nc2nc3cc(C#N)ccc3[nH]2)nc2c1CCC2c1ccccc1 (stereo not shown) [Example 232, 2-(4-(methylamino)-7-phenyl-6,7-dihydro-5H-cyclopenta[d]pyrimidin-2-ylamino)-1H-benzo[d]imidazole-5-carbonitrile]
4 | > 1000 nM | CNc1nc(Nc2ccc(OC(F)(F)F)cc2)nc2c1CCC2c1ccccc1 (stereo not shown) [Example 236, N4-methyl-7-phenyl-N2-(4-(trifluoromethoxy)phenyl)-6,7-dihydro-5H-cyclopenta[d]pyrimidine-2,4-diamine]
5 | 100 to 1000 nM | CNc1nc(Nc2ccc(C(F)(F)F)cc2)nc2c1CCC2c1ccccc1 (stereo not shown) [Example 239, N4-methyl-7-phenyl-N2-(4-(trifluoromethyl)phenyl)-6,7-dihydro-5H-cyclopenta[d]pyrimidine-2,4-diamine]
6 | 100 to 1000 nM | CNc1nc(Nc2ccc(C(=O)N(C)C)cc2)nc2c1CCC2c1ccccc1 (stereo not shown) [Example 243, N,N-dimethyl-4-(4-(methylamino)-7-phenyl-6,7-dihydro-5H-cyclopenta[d]pyrimidin-2-ylamino)benzamide]
7 | > 1000 nM | CNc1nc(Nc2ccc(C3(C#N)CCCC3)cc2)nc2c1CCC2c1ccccc1 (stereo not shown) [Example 244, 1-(4-(4-(methylamino)-7-phenyl-6,7-dihydro-5H-cyclopenta[d]pyrimidin-2-ylamino)phenyl)cyclopentanecarbonitrile]
8 | 100 to 1000 nM | CNc1nc(Nc2ccc(C3(C#N)CC3)cc2)nc2c1CCC2c1ccccc1 (stereo not shown) [Example 247, 1-(4-(4-(methylamino)-7-phenyl-6,7-dihydro-5H-cyclopenta[d]pyrimidin-2-ylamino)phenyl)cyclopropanecarbonitrile]
9 | > 1000 nM | CNc1nc(Nc2ccc(NC3(C#N)CC3)c(OC)c2)nc2c1CCC2c1ccccc1 (stereo not shown) [Example 248, 1-(2-methoxy-4-(4-(methylamino)-7-phenyl-6,7-dihydro-5H-cyclopenta[d]pyrimidin-2-ylamino)phenylamino)cyclopropanecarbonitrile]
10 | > 1000 nM | CNc1nc(Nc2ccc3[nH]c(C)cc3c2)nc2c1CCC2c1ccccc1 (stereo not shown) [Example 249, N4-methyl-N2-(2-methyl-1H-indol-5-yl)-7-phenyl-6,7-dihydro-5H-cyclopenta[d]pyrimidine-2,4-diamine]
11 | > 1000 nM | CNc1nc(Nc2ccc3nc(C)oc3c2)nc2c1CCC2c1ccccc1 (stereo not shown) [Example 252, N4-methyl-N2-(2-methylbenzo[d]oxazol-6-yl)-7-phenyl-6,7-dihydro-5H-cyclopenta[d]pyrimidine-2,4-diamine]
12 | > 1000 nM | CNc1nc(Nc2ccc3nc(C)sc3c2)nc2c1CCC2c1ccccc1 (stereo not shown) [Example 255, N4-methyl-N2-(2-methylbenzo[d]thiazol-6-yl)-7-phenyl-6,7-dihydro-5H-cyclopenta[d]pyrimidine-2,4-diamine]
13 | 1.5 to 9.9 nM | CNc1nc(Nc2ccc(-c3ccnc(C)c3)c(OC)c2)nc2c1CCC2c1ccccc1 (stereo not shown) [Example 261, N2-(3-methoxy-4-(2-methylpyridin-4-yl)phenyl)-N4-methyl-7-phenyl-6,7-dihydro-5H-cyclopenta[d]pyrimidine-2,4-diamine]
14 | 1.5 to 9.9 nM | CNc1nc(Nc2ccc(-c3ccncc3)c(OC)c2)nc2c1CCC2c1ccccc1 (stereo not shown) [Example 262, N2-(3-methoxy-4-(pyridin-4-yl)phenyl)-N4-methyl-7-phenyl-6,7-dihydro-5H-cyclopenta[d]pyrimidine-2,4-diamine]

The next lines start with the compound.

Row | SMILES | IC50
15 | CNc1nc(Nc2ccncc2)nc2c1CCC2c1ccccc1 (stereo not shown) [Example 224, N4-methyl-7-phenyl-N2-(pyridin-4-yl)-6,7-dihydro-5H-cyclopenta[d]pyrimidine-2,4-diamine] | > 1000 nM
16 | CNc1nc(Nc2ccc(C#N)cc2)nc2c1CCC2c1ccccc1 (stereo not shown) [Example 226, 4-(4-(methylamino)-7-phenyl-6,7-dihydro-5H-cyclopenta[d]pyrimidin-2-ylamino)benzonitrile] | 100 to 1000 nM
17 | CNc1nc(Nc2ccc(C#N)c3ccccc23)nc2c1CCC2c1ccccc1 (stereo not shown) [Example 229, 4-(4-(methylamino)-7-phenyl-6,7-dihydro-5H-cyclopenta[d]pyrimidin-2-ylamino)-1-naphthonitrile] | > 1000 nM
18 | CNc1nc(Nc2cccc(C#N)c2)nc2c1CCC2c1ccccc1 (stereo not shown) [Example 233, 3-(4-(methylamino)-7-phenyl-6,7-dihydro-5H-cyclopenta[d]pyrimidin-2-ylamino)benzonitrile] | > 1000 nM
19 | CNc1nc(Nc2ccc(C(C)(C)C)cc2)nc2c1CCC2c1ccccc1 (stereo not shown) [Example 234, N2-(4-tert-butylphenyl)-N4-methyl-7-phenyl-6,7-dihydro-5H-cyclopenta[d]pyrimidine-2,4-diamine] | > 1000 nM
20 | CNc1nc(Nc2ccc(S(C)(=O)=O)cc2)nc2c1CCC2c1ccccc1 (stereo not shown) [Example 235, N4-methyl-N2-(4-(methylsulfonyl)phenyl)-7-phenyl-6,7-dihydro-5H-cyclopenta[d]pyrimidine-2,4-diamine] | 100 to 1000 nM
21 | CNc1nc(Nc2ccc3c(c2)CCNC3)nc2c1CCC2c1ccccc1 (stereo not shown) [Example 245, N4-methyl-7-phenyl-N2-(1,2,3,4-tetrahydroisoquinolin-6-yl)-6,7-dihydro-5H-cyclopenta[d]pyrimidine-2,4-diamine] | > 1000 nM
22 | CNc1nc(Nc2ccc3occc3c2)nc2c1CCC2c1ccccc1 (stereo not shown) [Example 250, N2-(benzofuran-5-yl)-N4-methyl-7-phenyl-6,7-dihydro-5H-cyclopenta[d]pyrimidine-2,4-diamine] | > 1000 nM
23 | CNc1nc(Nc2ccc3[nH]ccc3c2)nc2c1CCC2c1ccccc1 (stereo not shown) [Example 251, N2-(1H-indol-5-yl)-N4-methyl-7-phenyl-6,7-dihydro-5H-cyclopenta[d]pyrimidine-2,4-diamine] | > 1000 nM
24 | CNc1nc(Nc2ccc(C(C)=O)cc2)nc2c1CCC2c1ccccc1 (stereo not shown) [Example 257, 1-(4-(4-(methylamino)-7-phenyl-6,7-dihydro-5H-cyclopenta[d]pyrimidin-2-ylamino)phenyl)ethanone] | 10 to 100 nM
25 | CNc1nc(Nc2ccc(C3CC3)cc2)nc2c1CCC2c1ccc(F)cc1 (stereo not shown) [Example 258, N2-(4-cyclopropylphenyl)-7-(4-fluorophenyl)-N4-methyl-6,7-dihydro-5H-cyclopenta[d]pyrimidine-2,4-diamine] | > 1000 nM

Same assay, conditions: 19 h, H4 APP751 SWE clone 8.20 cells, 19 h incubation; read-out: Activity Rating (Aβ42 cellular IC50), numeric value

Row | IC50 | SMILES
26 | 42 nM | CNc1nc(Nc2ccc(C#N)nc2)nc2c1CCC2c1ccccc1 (stereo not shown) [Example 230, 5-(4-(methylamino)-7-phenyl-6,7-dihydro-5H-cyclopenta[d]pyrimidin-2-ylamino)picolinonitrile]
27 | 67 nM | CNc1nc(Nc2ccc(Br)c(C#N)c2)nc2c1CCC2c1ccccc1 (stereo not shown) [Example 242, 2-bromo-5-(4-(methylamino)-7-phenyl-6,7-dihydro-5H-cyclopenta[d]pyrimidin-2-ylamino)benzonitrile]
28 | 31 nM | CNc1nc(Nc2ccc(C#N)c(OC(F)(F)F)c2)nc2c1CCC2c1ccccc1 (stereo not shown) [Example 246, 4-(4-(methylamino)-7-phenyl-6,7-dihydro-5H-cyclopenta[d]pyrimidin-2-ylamino)-2-(trifluoromethoxy)benzonitrile]
29 | 5900 nM | CNc1nc(Nc2ccc3nc[nH]c3c2)nc2c1CCC2c1ccccc1 (stereo not shown) [Example 253, N2-(1H-benzo[d]imidazol-6-yl)-N4-methyl-7-phenyl-6,7-dihydro-5H-cyclopenta[d]pyrimidine-2,4-diamine]
30 | 1000 nM | CNc1nc(Nc2ccc3c(ccn3C)c2)nc2c1CCC2c1ccccc1 (stereo not shown) [Example 254, N4-methyl-N2-(1-methyl-1H-indol-5-yl)-7-phenyl-6,7-dihydro-5H-cyclopenta[d]pyrimidine-2,4-diamine]
31 | 940 nM | C#Cc1ccc(Nc2nc(NC)c3c(n2)C(c2ccc(F)cc2)CC3)cc1 (stereo not shown) [Example 259, N2-(4-ethynylphenyl)-7-(4-fluorophenyl)-N4-methyl-6,7-dihydro-5H-cyclopenta[d]pyrimidine-2,4-diamine]

Second part, the compound before the results:

Row | SMILES | IC50
32 | CNc1nc(Nc2ccc(C#N)cc2)nc2c1CCC2c1ccccc1 (stereo not shown) [Example 225, 4-(4-(methylamino)-7-phenyl-6,7-dihydro-5H-cyclopenta[d]pyrimidin-2-ylamino)benzonitrile] | 18 nM
33 | CNc1nc(Nc2ccc(C#N)c(C#N)c2)nc2c1CCC2c1ccccc1 (stereo not shown) [Example 237, 4-(4-(methylamino)-7-phenyl-6,7-dihydro-5H-cyclopenta[d]pyrimidin-2-ylamino)phthalonitrile] | 29 nM
34 | CNc1nc(Nc2ccc(Br)c(OC)c2)nc2c1CCC2c1ccccc1 (stereo not shown) [Example 256, N2-(4-bromo-3-methoxyphenyl)-N4-methyl-7-phenyl-6,7-dihydro-5H-cyclopenta[d]pyrimidine-2,4-diamine] | 97 nM
35 | CC#Cc1ccc(Nc2nc(NC)c3c(n2)C(c2ccc(F)cc2)CC3)cc1 (stereo not shown) [Example 260, 7-(4-fluorophenyl)-N4-methyl-N2-(4-(prop-1-ynyl)phenyl)-6,7-dihydro-5H-cyclopenta[d]pyrimidine-2,4-diamine] | 860 nM

Same assay, conditions: H4 APP751 SWE clone 8.20 cells, 19 h incubation; class symbols; read-out: Activity Rating (Aβ42 cellular IC50)

Row | SMILES | IC50
36 | CNc1nc(Nc2ccc(C#N)c(C(F)(F)F)c2)nc2c1CCC2c1ccccc1 (stereo not shown) [Example 238, 4-(4-(methylamino)-7-phenyl-6,7-dihydro-5H-cyclopenta[d]pyrimidin-2-ylamino)-2-(trifluoromethyl)benzonitrile] | 100 to 1000 nM

Same assay, conditions: H4 APP751 SWE clone 8.20 cells, 19 h incubation; read-out: Activity Rating (Aβ42 cellular IC50), numeric value

Row | IC50 | SMILES
37 | 12 nM | CNc1nc(Nc2ccc(C#N)cc2)nc2c1CCC2c1ccccc1 (stereo not shown) [Example 227, 4-(4-(methylamino)-7-phenyl-6,7-dihydro-5H-cyclopenta[d]pyrimidin-2-ylamino)benzonitrile]
